Measurements reported in PubChem BioAssay AID1195 (EPA DSSTox, 2008).

Test system: human maximum recommended daily dose, FDA database
Assay: DSSTox (FDAMDD) FDA Maximum (Recommended) Daily Dose Database
Settings: stronger effect = lower value
How it was run: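 MRDD values come from clinical trials with daily oral dosing, usually for 3–12 months, for the average adult, in mg/day converted to mg/kg-bw/day assuming 60 kg. Antineoplastic mg/m2 doses are divided by 37. Activity score maps log10(1/MRDD mmol) onto 1–100.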

[1] = TherapeuticCategory: antibacterial
[2] = TherapeuticCategory: antipsychotic
[3] = TherapeuticCategory: vasodilator

`CCC(=O)O[C@@H]1CC(=O)O[C@H](C)C/C=C/C=C/[C@H](O[C@@H]2CC[C@H](N(C)C)[C@@H](C)O2)[C@H](C)C[C@H](CC=O)[C@H](O[C@@H]2O[C@H](C)[C@@H](O[C@H]3C[C@@](C)(O)[C@@H](O)[C@H](C)O3)[C@H](N(C)C)[C@H]2O)[C@H]1OC` showed a maximum recommended daily dose (mmol/kg-bw/day) [1] of 0.0742.

With `C[C@@H]1CN2CC(=O)Nc3ccc(Cl)cc3[C@]2(c2ccccc2)O1` the maximum recommended daily dose (mmol/kg-bw/day) (TherapeuticCategory: anxiolytic) was 0.00304.

In the case of `CCC[C@H](N[C@@H](C)C(=O)N1[C@H](C(=O)O)C[C@@H]2CCCC[C@@H]21)C(=O)OCC`, the maximum recommended daily dose (mmol/kg-bw/day) (TherapeuticCategory: antihypertensive, ACE inhibitor) is reported as 0.000361.

Compound `CCN(CCO)CCn1c(Cc2ccccc2)nc2c1c(=O)n(C)c(=O)n2C` has a maximum recommended daily dose (mmol/kg-bw/day) (TherapeuticCategory: bronchodilator) of 0.0778.

`CC[C@H](C)C(=O)O[C@H]1C[C@H](O)C=C2C=C[C@H](C)[C@H](CC[C@@H](O)C[C@@H](O)CC(=O)O)[C@H]21` showed a maximum recommended daily dose (mmol/kg-bw/day) (TherapeuticCategory: antihyperlipoproteinemic) of 0.00157.

`O=C(O)[C@H](O)[C@@H](O)C(=O)O` showed a maximum recommended daily dose (mmol/kg-bw/day) (TherapeuticCategory: none) of 0.2.

`CN(C)CCCN1c2ccccc2Sc2ccc(C(F)(F)F)cc21` gave a maximum recommended daily dose (mmol/kg-bw/day) [2] of 0.00709.

`CS(=O)(=O)c1ccc([C@@H](O)[C@@H](COC(=O)CN)NC(=O)C(Cl)Cl)cc1` gave a maximum recommended daily dose (mmol/kg-bw/day) [1] of 0.111.

For `CC(=O)[C@]1(O)Cc2c(O)c3c(c(O)c2[C@@H](O[C@H]2C[C@H](N)[C@H](O)[C@H](C)O2)C1)C(=O)c1ccccc1C3=O`, the maximum recommended daily dose (mmol/kg-bw/day) (TherapeuticCategory: antibacterial, antineoplastic) was 0.00543.

`CC(=O)[C@@]1(O)CC[C@H]2[C@@H]3C=C(Cl)C4=CC(=O)[C@@H]5C[C@@H]5[C@]4(C)[C@H]3CC[C@@]21C` was tested, and the maximum recommended daily dose (mmol/kg-bw/day) (TherapeuticCategory: antiandrogen) was 0.0133.

Work on `O=C(CCCN1CCC(O)(c2ccc(Br)cc2)CC1)c1ccc(F)cc1` yielded a maximum recommended daily dose (mmol/kg-bw/day) [2] of 0.00198.

`CCN(CC)C(=O)Nc1ccc(OCC(O)CNC(C)(C)C)c(C(C)=O)c1` (stereo unspecified) gave a maximum recommended daily dose (mmol/kg-bw/day) (TherapeuticCategory: antihypertensive, antianginal) of 0.0176.

`Nc1ccc(C(=O)NCC(=O)O)cc1` showed a maximum recommended daily dose (mmol/kg-bw/day) (TherapeuticCategory: anti inflammatory, antifungal) of 0.0515.

In the case of `CC(C)(O)C(C)(O)c1ccc(Cl)cc1` (stereo unspecified), the maximum recommended daily dose (mmol/kg-bw/day) (TherapeuticCategory: anxiolytic, anticonvulsant) is reported as 0.0932.

`CC(C)(C)NCC(O)COc1ccccc1C#N` (stereo unspecified) gave a maximum recommended daily dose (mmol/kg-bw/day) (TherapeuticCategory: antihypertensive, antianginal, antiarrhythmic) of 0.00269.

For `CCc1nn(CCCN2CCN(c3cccc(Cl)c3)CC2)c(=O)n1CCOc1ccccc1`, the maximum recommended daily dose (mmol/kg-bw/day) (TherapeuticCategory: antidepressant, seratonin receptor antagonist) was 0.0213.

Work on `COc1ccc2c3c1O[C@H]1C(=O)CC[C@@]4(O)[C@@H](C2)N(C)CC[C@]314` yielded a maximum recommended daily dose (mmol/kg-bw/day) (TherapeuticCategory: narcotic analgesic) of 0.0169.

`C[N+]1(C)CCC(=C(c2ccccc2)c2ccccc2)CC1` showed a maximum recommended daily dose (mmol/kg-bw/day) (TherapeuticCategory: anticholinergic) of 0.0341.

In the case of `C[C@H]1CC2=CC(=O)CC[C@]2(C)[C@H]2CC[C@@]3(C)[C@@H](CC[C@]3(C)O)[C@H]12`, the maximum recommended daily dose (mmol/kg-bw/day) (TherapeuticCategory: antineoplastic) is reported as 0.0158.

For `NC(N)=Nc1nc(CSCC/C(N)=N/S(N)(=O)=O)cs1`, the maximum recommended daily dose (mmol/kg-bw/day) (TherapeuticCategory: antiulcerative) was 0.00198.

`CCCCc1oc2ccccc2c1C(=O)c1cc(I)c(OCCN(CC)CC)c(I)c1` was tested, and the maximum recommended daily dose (mmol/kg-bw/day) (TherapeuticCategory: antiarrhythmic, antianginal) was 0.0414.

`OCc1cccnc1` gave a maximum recommended daily dose (mmol/kg-bw/day) [3] of 0.0458.

Compound `C[C@@H]1CN(c2c(F)c(N)c3c(=O)c(C(=O)O)cn(C4CC4)c3c2F)C[C@H](C)N1` has a maximum recommended daily dose (mmol/kg-bw/day) [1] of 0.017.

Work on `C#CC1(OC(N)=O)CCCCC1` yielded a maximum recommended daily dose (mmol/kg-bw/day) (TherapeuticCategory: sedative, hypnotic) of 0.0999.

Compound `CC#C[C@]1(O)CC[C@H]2[C@@H]3CCC4=CC(=O)CCC4=C3[C@@H](c3ccc(N(C)C)cc3)C[C@@]21C` has a maximum recommended daily dose (mmol/kg-bw/day) (TherapeuticCategory: abortifacient) of 0.0233.

`CCCCC[C@H](O)/C=C/[C@@H]1[C@@H](C/C=C\CCCC(=O)O)[C@@H](O)C[C@H]1O` was tested, and the maximum recommended daily dose (mmol/kg-bw/day) (TherapeuticCategory: oxytocic, abortifacient) was 3.53e-05.

Work on `O=C1C[C@@H]2OCC=C3CN4CC[C@]56c7ccccc7N1[C@H]5[C@H]2[C@H]3C[C@H]46` yielded a maximum recommended daily dose (mmol/kg-bw/day) (TherapeuticCategory: rat poison) of 0.00209.

`C[C@]12C=CC(=O)C=C1CC[C@@H]1[C@@H]2CC[C@@]2(C)[C@H]1CC[C@]2(C)O` showed a maximum recommended daily dose (mmol/kg-bw/day) (TherapeuticCategory: androgen) of 0.000222.

`COc1ccc([C@@H]2Sc3ccccc3N(CCN(C)C)C(=O)[C@@H]2OC(C)=O)cc1` showed a maximum recommended daily dose (mmol/kg-bw/day) (TherapeuticCategory: antianginal) of 0.0193.

`O=S(O)CNc1ccc(S(=O)(=O)c2ccc(NCS(=O)O)cc2)cc1` gave a maximum recommended daily dose (mmol/kg-bw/day) [1] of 0.0111.

Work on `NC(=O)c1ncn([C@@H]2O[C@H](CO)[C@@H](O)[C@H]2O)n1` yielded a maximum recommended daily dose (mmol/kg-bw/day) (TherapeuticCategory: antiviral) of 0.819.

Compound `CC(=O)O[C@H]1C[C@H](O[C@H]2[C@@H](O)C[C@H](O[C@H]3[C@@H](O)C[C@H](OC4CC[C@@]5(C)[C@H](CC[C@@H]6[C@@H]5CC[C@]5(C)[C@@H](C7=CC(=O)OC7)CC[C@]65O)C4)O[C@@H]3C)O[C@@H]2C)O[C@H](C)[C@H]1O[C@@H]1O[C@H](CO)[C@@H](O)[C@H](O)[C@H]1O` (stereo partly specified) has a maximum recommended daily dose (mmol/kg-bw/day) (TherapeuticCategory: cardiotonic) of 3.44e-05.

For `CCCN[C@H]1CCc2nc(N)sc2C1`, the maximum recommended daily dose (mmol/kg-bw/day) (TherapeuticCategory: antiparkinsonian, dopamine receptor agonist) was 0.000473.

`COc1ccc(C2C(=O)c3ccccc3C2=O)cc1` gave a maximum recommended daily dose (mmol/kg-bw/day) (TherapeuticCategory: anticoagulant) of 0.0198.

`CC(COc1ccccc1)NC(C)C(O)c1ccc(O)cc1` (stereo unspecified) showed a maximum recommended daily dose (mmol/kg-bw/day) [3] of 0.00441.

Compound `CCN(CC)CCOc1ccc(/C(=C(\Cl)c2ccccc2)c2ccccc2)cc1` has a maximum recommended daily dose (mmol/kg-bw/day) (TherapeuticCategory: gonad stimulating) of 0.00411.
